Test results from ChEMBL document CHEMBL1201862, “PubChem BioAssay data set” (2004).
Blank lines part the entries; values can stand above or below the compound they belong to. Active and inactive are the calls of the source.

How the values were obtained:
Assay type in all cases: functional
Activin receptor type-1 = Activin receptor type-1 (Homo sapiens, UniProt Q04771); experiment: Navigating the Kinome. Panel member name: ACVR1
[1] = target: Rho-associated protein kinase 2 (Homo sapiens, UniProt O75116)
[2] = target: Vascular endothelial growth factor receptor 1 (Homo sapiens, UniProt P17948);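 further: measured within a kinome-wide profiling panel, FLT1 as the panel member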
[3] = target: Dual specificity tyrosine-phosphorylation-regulated kinase 4 (Homo sapiens, UniProt Q9NR20)
[4] = target: Serine/threonine-protein kinase BRSK1 (Homo sapiens, UniProt Q8TDC3);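 further: measured within a kinome-wide kinase panel, with the target listed as KIAA1811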
[5] = target: Hepatocyte growth factor receptor (Homo sapiens, UniProt P08581);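 further: kinase panel profiling across the kinome, with MET as the panel member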
Sequence of Hepatocyte growth factor receptor (P08581 whole entry): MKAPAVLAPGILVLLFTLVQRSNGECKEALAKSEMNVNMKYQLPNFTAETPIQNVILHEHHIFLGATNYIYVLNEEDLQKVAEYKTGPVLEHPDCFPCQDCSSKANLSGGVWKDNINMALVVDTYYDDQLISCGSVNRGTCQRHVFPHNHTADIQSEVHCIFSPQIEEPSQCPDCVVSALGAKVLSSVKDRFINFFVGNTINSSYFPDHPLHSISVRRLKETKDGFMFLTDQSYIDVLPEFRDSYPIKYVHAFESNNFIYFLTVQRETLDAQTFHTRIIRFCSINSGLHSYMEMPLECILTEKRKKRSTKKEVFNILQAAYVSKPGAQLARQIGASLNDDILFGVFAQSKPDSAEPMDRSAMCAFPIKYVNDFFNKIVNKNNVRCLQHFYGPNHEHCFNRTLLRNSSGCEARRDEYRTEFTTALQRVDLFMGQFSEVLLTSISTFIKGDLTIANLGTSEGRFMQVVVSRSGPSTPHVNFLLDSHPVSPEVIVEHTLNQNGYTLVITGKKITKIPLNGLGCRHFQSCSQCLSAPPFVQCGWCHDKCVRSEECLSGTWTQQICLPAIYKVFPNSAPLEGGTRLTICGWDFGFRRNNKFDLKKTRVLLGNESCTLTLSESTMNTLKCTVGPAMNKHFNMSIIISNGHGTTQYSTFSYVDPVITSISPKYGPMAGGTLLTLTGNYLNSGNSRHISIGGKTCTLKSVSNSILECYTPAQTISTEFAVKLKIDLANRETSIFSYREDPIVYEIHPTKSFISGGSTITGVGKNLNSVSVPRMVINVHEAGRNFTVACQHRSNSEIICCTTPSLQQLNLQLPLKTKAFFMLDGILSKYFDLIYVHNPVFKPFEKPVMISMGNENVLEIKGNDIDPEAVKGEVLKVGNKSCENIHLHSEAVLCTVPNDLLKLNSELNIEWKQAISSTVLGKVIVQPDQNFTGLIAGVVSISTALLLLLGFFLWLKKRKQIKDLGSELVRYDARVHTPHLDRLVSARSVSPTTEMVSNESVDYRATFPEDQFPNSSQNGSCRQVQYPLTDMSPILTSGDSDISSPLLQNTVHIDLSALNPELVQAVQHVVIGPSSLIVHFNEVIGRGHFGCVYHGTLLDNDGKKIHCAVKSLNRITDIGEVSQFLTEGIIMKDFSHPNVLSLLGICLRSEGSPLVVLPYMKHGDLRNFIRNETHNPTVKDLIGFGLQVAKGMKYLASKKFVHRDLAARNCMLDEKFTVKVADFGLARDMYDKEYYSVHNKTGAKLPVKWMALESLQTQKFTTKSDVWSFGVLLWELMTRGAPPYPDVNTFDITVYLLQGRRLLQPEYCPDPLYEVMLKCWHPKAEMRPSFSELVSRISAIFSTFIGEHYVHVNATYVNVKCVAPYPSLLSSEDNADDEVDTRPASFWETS

[6] = target: ALK tyrosine kinase receptor (Homo sapiens, UniProt Q9UM73);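 further: ALK tested as one member of a kinase panel screen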
Sequence of ALK tyrosine kinase receptor (Q9UM73 whole entry): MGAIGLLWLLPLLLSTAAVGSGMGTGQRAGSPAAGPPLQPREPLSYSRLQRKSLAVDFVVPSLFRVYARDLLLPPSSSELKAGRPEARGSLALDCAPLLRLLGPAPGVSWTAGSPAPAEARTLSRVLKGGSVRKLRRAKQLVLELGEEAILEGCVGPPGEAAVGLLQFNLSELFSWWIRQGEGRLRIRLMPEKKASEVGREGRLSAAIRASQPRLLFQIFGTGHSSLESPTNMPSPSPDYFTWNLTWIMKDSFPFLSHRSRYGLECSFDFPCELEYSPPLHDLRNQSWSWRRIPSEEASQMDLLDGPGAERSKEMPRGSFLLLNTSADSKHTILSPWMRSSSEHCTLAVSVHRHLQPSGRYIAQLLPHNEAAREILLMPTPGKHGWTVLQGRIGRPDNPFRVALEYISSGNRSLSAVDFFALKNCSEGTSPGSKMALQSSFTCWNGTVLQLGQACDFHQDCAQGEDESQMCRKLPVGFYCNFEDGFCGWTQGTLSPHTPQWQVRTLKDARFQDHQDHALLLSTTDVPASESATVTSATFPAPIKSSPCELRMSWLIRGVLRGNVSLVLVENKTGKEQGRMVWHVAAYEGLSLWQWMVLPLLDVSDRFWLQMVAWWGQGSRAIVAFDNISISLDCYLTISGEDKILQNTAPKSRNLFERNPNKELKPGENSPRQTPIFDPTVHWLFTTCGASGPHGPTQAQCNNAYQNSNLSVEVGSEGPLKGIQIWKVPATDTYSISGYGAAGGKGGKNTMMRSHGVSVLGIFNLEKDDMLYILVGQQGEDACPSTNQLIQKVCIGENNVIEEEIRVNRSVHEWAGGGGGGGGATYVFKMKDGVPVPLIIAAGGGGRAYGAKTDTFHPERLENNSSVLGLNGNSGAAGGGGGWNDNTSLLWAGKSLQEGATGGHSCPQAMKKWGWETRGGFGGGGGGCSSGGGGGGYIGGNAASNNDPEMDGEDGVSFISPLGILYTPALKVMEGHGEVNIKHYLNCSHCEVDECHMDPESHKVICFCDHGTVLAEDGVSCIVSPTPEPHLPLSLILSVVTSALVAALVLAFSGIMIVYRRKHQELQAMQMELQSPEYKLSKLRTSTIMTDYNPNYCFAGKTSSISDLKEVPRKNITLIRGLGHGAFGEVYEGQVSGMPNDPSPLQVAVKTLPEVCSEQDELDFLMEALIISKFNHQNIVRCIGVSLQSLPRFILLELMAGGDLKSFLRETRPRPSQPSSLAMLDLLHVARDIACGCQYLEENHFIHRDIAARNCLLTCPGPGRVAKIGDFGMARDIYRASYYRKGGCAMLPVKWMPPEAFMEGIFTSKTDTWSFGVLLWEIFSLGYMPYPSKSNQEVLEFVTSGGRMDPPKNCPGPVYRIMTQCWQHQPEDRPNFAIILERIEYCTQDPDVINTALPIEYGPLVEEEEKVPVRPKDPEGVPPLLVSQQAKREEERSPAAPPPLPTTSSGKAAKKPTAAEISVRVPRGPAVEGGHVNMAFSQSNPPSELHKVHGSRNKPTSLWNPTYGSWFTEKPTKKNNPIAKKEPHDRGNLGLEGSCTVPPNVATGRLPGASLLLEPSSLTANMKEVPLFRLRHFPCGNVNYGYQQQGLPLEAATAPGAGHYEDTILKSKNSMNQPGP

[7] = target: Dual specificity tyrosine-phosphorylation-regulated kinase 1A (Homo sapiens, UniProt Q13627);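 further: measured against DYRK1A as one member of a broad kinome profiling panel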
Ephrin type-A receptor 2 = Ephrin type-A receptor 2 (Homo sapiens, UniProt P29317);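 further: EPHA2 tested as one member of a kinome-wide kinase panel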
[8] = target: Mast/stem cell growth factor receptor Kit (Homo sapiens, UniProt P10721);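 further: KIT entry within a kinase panel assay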
[9] = target: MAP kinase-activated protein kinase 2 (Homo sapiens, UniProt P49137);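 further: measured as one member of a kinome-wide kinase panel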
[10] = target: Tyrosine-protein kinase Srms (Homo sapiens, UniProt Q9H3Y6);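 further: SRMS measured as one member of a kinome-wide kinase profiling panel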
[11] = target: Calcium/calmodulin-dependent protein kinase kinase 2 (Homo sapiens, UniProt Q96RR4); experiment: Navigating the Kinome. Panel member name: CAMKK2
[12] = target: Cyclin-dependent kinase 7 (Homo sapiens, UniProt P50613);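 further: value comes from a kinome-wide kinase profiling panel in which CDK7 is one member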
[13] = target: Serine/threonine-protein kinase SIK2 (Homo sapiens, UniProt Q9H0K1); experiment: Navigating the Kinome. Panel member name: SIK2
Sequence of Serine/threonine-protein kinase SIK2 (Q9H0K1 whole entry): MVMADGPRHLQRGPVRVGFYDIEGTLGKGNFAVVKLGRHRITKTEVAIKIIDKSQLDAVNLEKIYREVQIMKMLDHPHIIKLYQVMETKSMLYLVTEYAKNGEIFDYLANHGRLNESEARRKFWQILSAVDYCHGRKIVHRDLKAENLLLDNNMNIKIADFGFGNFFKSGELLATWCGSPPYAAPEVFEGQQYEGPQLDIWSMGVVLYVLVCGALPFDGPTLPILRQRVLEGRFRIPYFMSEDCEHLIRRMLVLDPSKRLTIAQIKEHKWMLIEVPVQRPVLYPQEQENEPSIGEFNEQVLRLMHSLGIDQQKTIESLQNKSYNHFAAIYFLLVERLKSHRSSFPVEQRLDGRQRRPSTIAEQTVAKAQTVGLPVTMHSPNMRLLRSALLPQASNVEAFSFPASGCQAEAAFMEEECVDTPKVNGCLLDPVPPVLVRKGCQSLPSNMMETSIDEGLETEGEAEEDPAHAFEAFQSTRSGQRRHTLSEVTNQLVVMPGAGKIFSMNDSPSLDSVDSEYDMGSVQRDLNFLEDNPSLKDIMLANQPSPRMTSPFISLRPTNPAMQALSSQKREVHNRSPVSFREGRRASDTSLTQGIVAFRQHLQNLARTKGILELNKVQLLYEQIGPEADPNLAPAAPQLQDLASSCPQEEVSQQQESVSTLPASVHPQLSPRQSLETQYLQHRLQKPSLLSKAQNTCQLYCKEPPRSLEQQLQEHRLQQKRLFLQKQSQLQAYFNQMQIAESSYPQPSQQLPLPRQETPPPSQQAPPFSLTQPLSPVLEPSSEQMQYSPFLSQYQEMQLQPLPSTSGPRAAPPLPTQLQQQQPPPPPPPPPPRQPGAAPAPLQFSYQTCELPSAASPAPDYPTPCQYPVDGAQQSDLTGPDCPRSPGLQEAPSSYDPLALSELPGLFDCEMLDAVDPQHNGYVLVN

[14] = target: Proto-oncogene tyrosine-protein kinase receptor Ret (Homo sapiens, UniProt P07949);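 further: measured within a kinome-wide profiling panel, RET as the panel member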
[15] = target: Serine/threonine-protein kinase pim-2 (Homo sapiens, UniProt Q9P1W9);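 further: value comes from a broad kinase panel profiling study in which PIM2 was one of the panel members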
[16] = target: Mitogen-activated protein kinase 1 (Homo sapiens, UniProt P28482)
[17] = target: MAP/microtubule affinity-regulating kinase 4 (Homo sapiens, UniProt Q96L34); experiment: Navigating the Kinome. Panel member name: MARK4
[18] = target: G protein-coupled receptor kinase 5 (Homo sapiens, UniProt P34947); experiment: Navigating the Kinome. Panel member name: GPRK5
[19] = target: Calcium/calmodulin-dependent protein kinase type II subunit alpha (Homo sapiens, UniProt Q9UQM7); experiment: Navigating the Kinome. Panel member name: CAMK2A
[20] = target: MAP kinase-activated protein kinase 5 (Homo sapiens, UniProt Q8IW41);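 further: measured as one member of a kinome panel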
Sequence of MAP kinase-activated protein kinase 5 (Q8IW41 whole entry): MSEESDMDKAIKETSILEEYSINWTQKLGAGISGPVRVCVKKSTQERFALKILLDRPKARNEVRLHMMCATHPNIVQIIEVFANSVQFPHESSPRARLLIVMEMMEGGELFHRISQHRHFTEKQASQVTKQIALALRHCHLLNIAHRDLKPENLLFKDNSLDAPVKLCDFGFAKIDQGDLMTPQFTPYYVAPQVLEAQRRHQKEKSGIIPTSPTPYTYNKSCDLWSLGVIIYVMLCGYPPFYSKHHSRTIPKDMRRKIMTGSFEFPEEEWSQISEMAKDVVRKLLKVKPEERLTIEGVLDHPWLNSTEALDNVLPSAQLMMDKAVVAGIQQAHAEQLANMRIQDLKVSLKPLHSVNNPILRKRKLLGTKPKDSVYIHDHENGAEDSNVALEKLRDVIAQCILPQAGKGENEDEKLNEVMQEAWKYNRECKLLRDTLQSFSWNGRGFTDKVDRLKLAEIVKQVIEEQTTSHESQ

[21] = target: Interleukin-1 receptor-associated kinase 4 (Homo sapiens, UniProt Q9NWZ3)
[22] = target: Mitogen-activated protein kinase kinase kinase 20 (Homo sapiens, UniProt Q9NYL2)
[23] = target: Inhibitor of nuclear factor kappa-B kinase subunit epsilon (Homo sapiens, UniProt Q14164); experiment: Navigating the Kinome. Panel member name: IKBKE
Sequence of Inhibitor of nuclear factor kappa-B kinase subunit epsilon (Q14164 whole entry): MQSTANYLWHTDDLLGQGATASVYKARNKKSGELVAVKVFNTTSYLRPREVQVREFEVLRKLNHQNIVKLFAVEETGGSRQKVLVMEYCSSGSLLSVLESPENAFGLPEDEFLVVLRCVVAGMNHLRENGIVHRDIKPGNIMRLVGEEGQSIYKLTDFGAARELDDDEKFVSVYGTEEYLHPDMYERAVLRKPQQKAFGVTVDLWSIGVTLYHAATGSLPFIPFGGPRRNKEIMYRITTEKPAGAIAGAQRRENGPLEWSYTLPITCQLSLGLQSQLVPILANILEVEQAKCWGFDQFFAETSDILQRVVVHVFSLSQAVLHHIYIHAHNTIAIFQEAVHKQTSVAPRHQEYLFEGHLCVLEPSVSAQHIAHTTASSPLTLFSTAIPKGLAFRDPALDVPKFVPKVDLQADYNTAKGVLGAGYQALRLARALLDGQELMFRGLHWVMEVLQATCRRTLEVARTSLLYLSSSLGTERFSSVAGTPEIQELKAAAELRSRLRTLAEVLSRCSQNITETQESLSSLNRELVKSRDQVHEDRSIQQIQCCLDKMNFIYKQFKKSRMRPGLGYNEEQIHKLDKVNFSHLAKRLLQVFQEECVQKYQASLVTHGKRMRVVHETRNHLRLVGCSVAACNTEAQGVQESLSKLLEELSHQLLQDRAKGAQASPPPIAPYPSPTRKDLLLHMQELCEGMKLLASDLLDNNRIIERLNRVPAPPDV

[24] = target: MAP/microtubule affinity-regulating kinase 3 (Homo sapiens, UniProt P27448);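 further: MARK3 affinity measured as one member of a kinome panel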
[25] = target: Proto-oncogene tyrosine-protein kinase ROS (Homo sapiens, UniProt P08922);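 further: ROS1 tested as one member of a kinome-wide kinase panel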
[26] = target: Tyrosine-protein kinase Fer (Homo sapiens, UniProt P16591);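 further: FER tested as one member of a kinome panel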
[27] = target: Homeodomain-interacting protein kinase 4 (Homo sapiens, UniProt Q8NE63)
[28] = target: T1, Calpain-2 catalytic subunit (Sus scrofa, UniProt P43367); experiment: m-calpain protease blockers, concentration series – biochemical, fluorogenic peptide substrate, dose response (AID 1420)
T1 sequence (P43367 whole entry): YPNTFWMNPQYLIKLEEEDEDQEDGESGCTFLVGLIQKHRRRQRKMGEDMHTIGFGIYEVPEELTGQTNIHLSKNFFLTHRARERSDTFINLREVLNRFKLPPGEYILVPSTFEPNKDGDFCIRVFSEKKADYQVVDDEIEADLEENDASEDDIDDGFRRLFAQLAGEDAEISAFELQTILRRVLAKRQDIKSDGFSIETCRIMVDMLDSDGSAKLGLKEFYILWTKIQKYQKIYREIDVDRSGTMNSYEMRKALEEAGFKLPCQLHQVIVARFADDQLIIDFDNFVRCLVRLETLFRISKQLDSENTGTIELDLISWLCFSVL

[29] = target: T2, Neuropeptide Y receptor type 2 (Homo sapiens, UniProt P49146); experiment: Fluorescence-based counterscreen for agonists of NPY-Y1: cell-based high-throughput dose response assay for agonists of NPY-Y2.
T2 sequence (P49146 whole entry): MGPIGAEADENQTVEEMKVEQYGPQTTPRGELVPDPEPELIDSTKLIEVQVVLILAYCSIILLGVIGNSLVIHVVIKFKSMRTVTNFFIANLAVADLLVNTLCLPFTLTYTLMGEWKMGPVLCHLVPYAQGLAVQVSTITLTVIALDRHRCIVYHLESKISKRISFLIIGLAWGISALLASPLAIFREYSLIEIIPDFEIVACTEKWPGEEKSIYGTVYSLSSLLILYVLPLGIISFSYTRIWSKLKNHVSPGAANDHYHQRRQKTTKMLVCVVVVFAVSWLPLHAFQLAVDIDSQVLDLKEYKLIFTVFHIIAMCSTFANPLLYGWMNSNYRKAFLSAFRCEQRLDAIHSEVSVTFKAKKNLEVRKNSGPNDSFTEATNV

Genome polyprotein = Genome polyprotein (dengue virus type 2, UniProt P29990); experiment: flavivirus cap methylation enzyme inhibition – biochemical, confirmation dose response, primary screen (AID 588689)
[30] = target: T3, Sentrin-specific protease 8 (Homo sapiens, UniProt Q96LD8);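 further: kinetic enzyme assay of SENP8 cleaving a Nedd8 protein substrate, dose-response confirmation of screening hits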
T3 sequence (Q96LD8 whole entry): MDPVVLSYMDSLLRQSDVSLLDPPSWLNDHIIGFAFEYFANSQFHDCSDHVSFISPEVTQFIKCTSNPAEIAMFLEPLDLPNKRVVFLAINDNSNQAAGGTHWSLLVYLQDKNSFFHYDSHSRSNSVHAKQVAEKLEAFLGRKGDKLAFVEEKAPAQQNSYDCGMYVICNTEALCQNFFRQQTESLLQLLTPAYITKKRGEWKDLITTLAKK

Ki (Activin receptor type-1): > 3.98 µM (inactive)
Ki [1]: 0.0126 µM (active)
Ki [2]: > 1.58 µM (inactive)
Ki [3]: 1.58 µM (active)
Ki [4]: 1.26 µM (active)
Ki [5]: > 2 µM (inactive)
Ki [6]: > 2.51 µM (inactive)
Ki [7]: 0.0501 µM (active)
Ki (Ephrin type-A receptor 2): > 3.16 µM (inactive)
Ki [8]: > 2.51 µM (inactive)
Ki [9]: 1.26 µM (active)
Ki [10]: > 1.58 µM (inactive)
Ki [11]: > 2.51 µM (inactive)
Ki [12]: > 6.31 µM (inactive)
Ki [13]: 0.398 µM (active)
Ki [14]: > 2.51 µM (inactive)
Ki [15]: 0.251 µM (active)
Ki [16]: > 5.01 µM (inactive)
Ki [17]: 0.398 µM (active)
Ki [18]: > 3.98 µM (inactive)
Ki [19]: > 3.16 µM (inactive)
Ki [20]: > 1.58 µM (inactive)
Ki [21]: 0.316 µM (active)
Ki [22]: > 7.94 µM (inactive)
Ki [23]: > 3.16 µM (inactive)
Ki [24]: 0.398 µM (active)
Ki [25]: 0.794 µM (active)
Ki [26]: 0.501 µM (active)
Ki [27]: 1 µM (active)
SMILES: OC1CCC(Nc2cc(Cl)nc(-c3c[nH]c4ncccc34)n2)CC1 (stereo not drawn)

SMILES: COCC/N=c1\scc(-c2cccs2)n1/N=C/c1ccc(O)c(O)c1O
IC50 [28]: 38.9 µM (not active)
EC50 [29]: 19.3 µM (not active)
IC50 (Genome polyprotein): > 100 µM (active)

SMILES: O=C(COC(=O)c1ccc([N+](=O)[O-])s1)NCCc1ccccc1
IC50 [30]: 3.23 µM (active)
